In the kinase profiling compilation of Christmann-Franck et al. (2016):

Key:
Assay in all cases: radiometric filter-binding kinase assay
MARK4 (human) = MARK4 (human) (UniProt Q96L34)
[1] = system: RPS6KB1 (human), P23443 [T412E]
CHEK1 (human) = CHEK1 (human) (UniProt O14757)
[2] = system: PAK2 (human), Q13177 [T402E]
GCK (human) = GCK (human) (UniProt Q12851)
CDK2 CCNA2 (human) = CDK2 CCNA2 (human) (UniProt P20248+P24941)
NEK6 (human) = NEK6 (human) (UniProt Q9HC98)
STK3 (human) = STK3 (human) (UniProt Q13188)
Sequence of STK3 (human) (Q13188 whole entry, looked up): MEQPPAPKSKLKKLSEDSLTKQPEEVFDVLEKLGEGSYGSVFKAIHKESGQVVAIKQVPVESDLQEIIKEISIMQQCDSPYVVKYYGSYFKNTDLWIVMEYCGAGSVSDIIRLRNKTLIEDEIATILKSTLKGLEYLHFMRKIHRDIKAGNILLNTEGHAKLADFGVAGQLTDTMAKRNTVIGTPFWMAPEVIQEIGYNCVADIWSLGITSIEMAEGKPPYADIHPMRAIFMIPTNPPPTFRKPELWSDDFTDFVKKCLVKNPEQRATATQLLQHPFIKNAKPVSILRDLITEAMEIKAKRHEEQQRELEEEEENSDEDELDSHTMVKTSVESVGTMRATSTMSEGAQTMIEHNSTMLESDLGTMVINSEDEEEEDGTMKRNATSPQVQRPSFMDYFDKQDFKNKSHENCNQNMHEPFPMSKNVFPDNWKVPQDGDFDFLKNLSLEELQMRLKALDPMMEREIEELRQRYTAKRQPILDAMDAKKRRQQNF

RPS6KA5 KD1 KD2 (human) = RPS6KA5 KD1 KD2 (human) (UniProt O75582)
MAP2K1 (human) = MAP2K1 (human) (UniProt Q02750)
MAP2K2 (human) = MAP2K2 (human) (UniProt P36507)
MYLK (human) = MYLK (human) (UniProt Q15746)
Sequence of MYLK (human) (Q15746 whole entry, looked up): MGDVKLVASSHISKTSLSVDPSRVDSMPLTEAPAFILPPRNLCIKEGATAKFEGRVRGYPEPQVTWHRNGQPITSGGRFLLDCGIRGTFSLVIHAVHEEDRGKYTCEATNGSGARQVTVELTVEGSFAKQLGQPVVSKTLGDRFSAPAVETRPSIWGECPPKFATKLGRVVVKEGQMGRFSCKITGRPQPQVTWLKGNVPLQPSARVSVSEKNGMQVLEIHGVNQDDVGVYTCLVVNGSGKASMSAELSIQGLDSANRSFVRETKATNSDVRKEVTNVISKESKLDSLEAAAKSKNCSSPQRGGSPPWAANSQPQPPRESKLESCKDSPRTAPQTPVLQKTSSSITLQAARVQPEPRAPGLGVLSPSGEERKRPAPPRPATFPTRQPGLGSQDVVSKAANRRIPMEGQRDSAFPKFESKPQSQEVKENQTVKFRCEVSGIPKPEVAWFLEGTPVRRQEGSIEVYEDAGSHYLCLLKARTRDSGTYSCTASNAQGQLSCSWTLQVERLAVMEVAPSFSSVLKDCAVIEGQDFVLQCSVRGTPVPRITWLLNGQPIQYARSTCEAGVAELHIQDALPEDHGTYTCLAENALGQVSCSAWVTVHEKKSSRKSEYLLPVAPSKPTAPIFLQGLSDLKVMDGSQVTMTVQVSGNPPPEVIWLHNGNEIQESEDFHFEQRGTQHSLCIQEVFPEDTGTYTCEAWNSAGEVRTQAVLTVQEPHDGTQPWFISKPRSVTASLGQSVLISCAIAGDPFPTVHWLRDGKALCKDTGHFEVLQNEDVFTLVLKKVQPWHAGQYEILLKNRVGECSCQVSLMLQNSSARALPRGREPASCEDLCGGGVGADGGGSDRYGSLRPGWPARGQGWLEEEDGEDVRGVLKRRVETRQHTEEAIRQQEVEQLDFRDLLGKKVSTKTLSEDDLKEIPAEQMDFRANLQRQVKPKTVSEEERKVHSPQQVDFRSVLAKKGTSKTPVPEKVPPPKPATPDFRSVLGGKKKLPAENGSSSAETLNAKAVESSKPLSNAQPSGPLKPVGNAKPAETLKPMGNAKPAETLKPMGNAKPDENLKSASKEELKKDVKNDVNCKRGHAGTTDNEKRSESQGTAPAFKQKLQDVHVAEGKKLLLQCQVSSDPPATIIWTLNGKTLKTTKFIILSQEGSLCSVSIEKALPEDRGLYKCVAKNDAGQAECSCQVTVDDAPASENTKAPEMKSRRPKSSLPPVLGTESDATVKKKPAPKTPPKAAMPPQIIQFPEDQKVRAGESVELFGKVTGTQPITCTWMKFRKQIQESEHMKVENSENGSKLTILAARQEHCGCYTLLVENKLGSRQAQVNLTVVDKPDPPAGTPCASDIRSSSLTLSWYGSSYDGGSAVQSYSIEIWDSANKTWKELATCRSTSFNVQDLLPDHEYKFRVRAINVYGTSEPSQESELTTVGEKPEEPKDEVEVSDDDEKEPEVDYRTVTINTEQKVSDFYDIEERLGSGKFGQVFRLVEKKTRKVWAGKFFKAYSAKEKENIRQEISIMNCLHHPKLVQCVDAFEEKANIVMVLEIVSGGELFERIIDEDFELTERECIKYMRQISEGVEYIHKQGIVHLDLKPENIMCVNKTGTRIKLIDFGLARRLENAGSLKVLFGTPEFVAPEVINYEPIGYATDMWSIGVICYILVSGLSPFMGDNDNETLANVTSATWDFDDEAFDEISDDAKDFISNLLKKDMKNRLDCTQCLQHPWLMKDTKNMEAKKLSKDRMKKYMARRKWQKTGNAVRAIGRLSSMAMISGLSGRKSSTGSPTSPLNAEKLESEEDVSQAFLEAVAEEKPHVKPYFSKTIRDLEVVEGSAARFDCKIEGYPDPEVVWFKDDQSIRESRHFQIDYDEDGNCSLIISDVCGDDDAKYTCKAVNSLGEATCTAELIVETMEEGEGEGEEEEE

TBK1 (human) = TBK1 (human) (UniProt Q9UHD2)
INSRR (human) = INSRR (human) (UniProt P14616)
YES1 (human) = YES1 (human) (UniProt P07947)
SRPK1 (human) = SRPK1 (human) (UniProt Q96SB4)
PIM1 (human) = PIM1 (human) (UniProt P11309)
PIM2 (human) = PIM2 (human) (UniProt Q9P1W9); conditions: compound 10.0 µM
EPHB1 (human) = EPHB1 (human) (UniProt P54762)
EPHB4 (human) = EPHB4 (human) (UniProt P54760)
MKNK2 (human) = MKNK2 (human) (UniProt Q9HBH9)
PIM3 (human) = PIM3 (human) (UniProt Q86V86)
MAPK9 (human) = MAPK9 (human) (UniProt P45984)
MAPKAPK2 (human) = MAPKAPK2 (human) (UniProt P49137)
Sequence of MAPKAPK2 (human) (P49137 whole entry, looked up): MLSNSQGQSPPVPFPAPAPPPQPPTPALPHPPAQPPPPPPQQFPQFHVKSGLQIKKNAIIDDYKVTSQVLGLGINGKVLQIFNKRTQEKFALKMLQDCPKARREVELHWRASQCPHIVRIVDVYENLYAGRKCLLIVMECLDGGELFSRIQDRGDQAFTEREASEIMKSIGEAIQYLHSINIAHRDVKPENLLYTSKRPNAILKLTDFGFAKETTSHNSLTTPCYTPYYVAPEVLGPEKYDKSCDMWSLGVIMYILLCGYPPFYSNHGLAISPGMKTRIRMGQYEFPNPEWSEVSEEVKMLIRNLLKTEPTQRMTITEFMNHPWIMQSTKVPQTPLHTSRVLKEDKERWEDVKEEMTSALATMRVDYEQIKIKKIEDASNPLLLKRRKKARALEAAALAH

TTK (human) = TTK (human) (UniProt P33981)
Sequence of TTK (human) (P33981 whole entry, looked up): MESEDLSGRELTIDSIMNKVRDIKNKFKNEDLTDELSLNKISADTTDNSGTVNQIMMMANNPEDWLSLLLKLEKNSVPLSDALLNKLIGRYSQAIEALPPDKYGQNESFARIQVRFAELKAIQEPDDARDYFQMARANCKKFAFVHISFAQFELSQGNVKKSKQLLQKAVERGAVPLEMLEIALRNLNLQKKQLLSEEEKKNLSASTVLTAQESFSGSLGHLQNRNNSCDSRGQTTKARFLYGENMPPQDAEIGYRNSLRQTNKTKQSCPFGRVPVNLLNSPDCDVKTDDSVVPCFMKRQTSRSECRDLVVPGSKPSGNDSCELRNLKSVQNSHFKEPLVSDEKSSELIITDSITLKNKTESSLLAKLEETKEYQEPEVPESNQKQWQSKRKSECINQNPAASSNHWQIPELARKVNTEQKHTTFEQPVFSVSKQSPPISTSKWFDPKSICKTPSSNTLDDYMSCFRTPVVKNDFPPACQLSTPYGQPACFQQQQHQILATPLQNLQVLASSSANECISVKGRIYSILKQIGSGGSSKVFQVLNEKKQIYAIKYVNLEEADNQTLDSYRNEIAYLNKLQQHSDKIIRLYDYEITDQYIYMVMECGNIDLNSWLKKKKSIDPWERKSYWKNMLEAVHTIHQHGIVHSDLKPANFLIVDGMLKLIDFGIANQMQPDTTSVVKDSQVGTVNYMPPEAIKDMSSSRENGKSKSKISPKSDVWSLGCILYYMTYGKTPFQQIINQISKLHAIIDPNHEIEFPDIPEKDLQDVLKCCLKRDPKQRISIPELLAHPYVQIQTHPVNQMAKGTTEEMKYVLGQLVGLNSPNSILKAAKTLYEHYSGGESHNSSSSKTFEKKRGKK

DAPK1 (human) = DAPK1 (human) (UniProt P53355)
BTK (human) = BTK (human) (UniProt Q06187)
EEF2K (human) = EEF2K (human) (UniProt O00418)
MAP3K5 (human) = MAP3K5 (human) (UniProt Q99683)
Sequence of MAP3K5 (human) (Q99683 whole entry, looked up): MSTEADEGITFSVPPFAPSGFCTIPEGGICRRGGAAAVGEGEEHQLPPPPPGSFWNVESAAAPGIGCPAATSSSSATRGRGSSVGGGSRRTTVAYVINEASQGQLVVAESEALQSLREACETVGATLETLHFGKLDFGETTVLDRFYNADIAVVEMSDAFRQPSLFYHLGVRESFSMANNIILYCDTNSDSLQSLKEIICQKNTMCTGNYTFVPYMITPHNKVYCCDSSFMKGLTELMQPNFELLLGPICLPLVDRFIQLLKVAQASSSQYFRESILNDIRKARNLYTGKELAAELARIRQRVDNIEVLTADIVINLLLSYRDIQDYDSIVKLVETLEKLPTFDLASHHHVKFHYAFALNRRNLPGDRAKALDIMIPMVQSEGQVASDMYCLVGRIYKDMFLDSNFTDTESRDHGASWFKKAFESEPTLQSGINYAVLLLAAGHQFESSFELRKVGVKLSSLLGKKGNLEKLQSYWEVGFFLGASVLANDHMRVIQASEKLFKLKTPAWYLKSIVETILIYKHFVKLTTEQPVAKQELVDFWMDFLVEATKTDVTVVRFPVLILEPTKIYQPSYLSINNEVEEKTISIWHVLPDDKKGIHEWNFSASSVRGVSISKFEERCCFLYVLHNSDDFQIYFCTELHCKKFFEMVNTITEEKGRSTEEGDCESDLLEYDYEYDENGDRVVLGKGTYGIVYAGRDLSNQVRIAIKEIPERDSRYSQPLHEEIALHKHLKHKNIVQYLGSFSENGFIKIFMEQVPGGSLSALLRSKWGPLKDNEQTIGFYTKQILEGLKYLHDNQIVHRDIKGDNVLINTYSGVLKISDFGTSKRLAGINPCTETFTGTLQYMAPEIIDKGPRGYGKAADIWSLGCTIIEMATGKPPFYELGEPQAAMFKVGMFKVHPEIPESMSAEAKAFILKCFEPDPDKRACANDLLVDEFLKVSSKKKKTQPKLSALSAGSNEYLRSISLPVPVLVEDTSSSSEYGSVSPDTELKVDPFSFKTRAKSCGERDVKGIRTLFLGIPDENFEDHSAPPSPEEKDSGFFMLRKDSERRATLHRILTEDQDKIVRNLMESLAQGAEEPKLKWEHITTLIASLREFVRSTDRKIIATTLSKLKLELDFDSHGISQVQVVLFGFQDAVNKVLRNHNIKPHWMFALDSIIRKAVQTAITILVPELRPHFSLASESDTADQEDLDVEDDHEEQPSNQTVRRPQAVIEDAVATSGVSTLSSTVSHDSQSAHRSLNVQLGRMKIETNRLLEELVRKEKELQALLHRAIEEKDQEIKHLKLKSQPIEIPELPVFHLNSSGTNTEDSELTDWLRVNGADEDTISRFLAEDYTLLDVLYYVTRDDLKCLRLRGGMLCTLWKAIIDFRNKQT

MAP3K9 (human) = MAP3K9 (human) (UniProt P80192)
IKBKB (human) = IKBKB (human) (UniProt O14920)
MARK3 (human) = MARK3 (human) (UniProt P27448)
PKN2 (human) = PKN2 (human) (UniProt Q16513)
PAK6 (human) = PAK6 (human) (UniProt Q9NQU5)
EPHA4 (human) = EPHA4 (human) (UniProt P54764)
CSNK2A1 (human) = CSNK2A1 (human) (UniProt P68400)

CCNc1nc(Nc2cc(F)c(C(=O)N3CCOCC3)cc2OC)ncc1C(F)(F)F
residual activity (MARK4 (human); compound 1.0 µM): 91% | residual activity (MARK4 (human); compound 10.0 µM): 67% | residual activity ([1]; compound 1.0 µM): 89% | residual activity ([1]; compound 10.0 µM): 60% | residual activity (CHEK1 (human); compound 1.0 µM): 44% | residual activity (CHEK1 (human); compound 10.0 µM): 12% | residual activity ([2]; compound 1.0 µM): 86% | residual activity ([2]; compound 10.0 µM): 86% | residual activity (GCK (human); compound 1.0 µM): 88% | residual activity (GCK (human); compound 10.0 µM): 28% | residual activity (CDK2 CCNA2 (human); compound 1.0 µM): 102% | residual activity (CDK2 CCNA2 (human); compound 10.0 µM): 79% | residual activity (NEK6 (human); compound 1.0 µM): 103% | residual activity (NEK6 (human); compound 10.0 µM): 84% | residual activity (STK3 (human); compound 1.0 µM): 85% | residual activity (STK3 (human); compound 10.0 µM): 73% | residual activity (RPS6KA5 KD1 KD2 (human); compound 1.0 µM): 91% | residual activity (RPS6KA5 KD1 KD2 (human); compound 10.0 µM): 49% | residual activity (MAP2K1 (human); compound 1.0 µM): 95% | residual activity (MAP2K1 (human); compound 10.0 µM): 75% | residual activity (MAP2K2 (human); compound 1.0 µM): 93% | residual activity (MAP2K2 (human); compound 10.0 µM): 90% | residual activity (MYLK (human); compound 1.0 µM): 31% | residual activity (MYLK (human); compound 10.0 µM): 6% | residual activity (TBK1 (human); compound 1.0 µM): 62% | residual activity (TBK1 (human); compound 10.0 µM): 17% | residual activity (INSRR (human); compound 1.0 µM): 90% | residual activity (INSRR (human); compound 10.0 µM): 67% | residual activity (YES1 (human); compound 1.0 µM): 104% | residual activity (YES1 (human); compound 10.0 µM): 104% | residual activity (SRPK1 (human); compound 1.0 µM): 79% | residual activity (SRPK1 (human); compound 10.0 µM): 68% | residual activity (PIM1 (human); compound 1.0 µM): 94% | residual activity (PIM1 (human); compound 10.0 µM): 99% | residual activity (PIM2 (human)): 93% | residual activity (EPHB1 (human); compound 1.0 µM): 100% | residual activity (EPHB1 (human); compound 10.0 µM): 90% | residual activity (EPHB4 (human); compound 1.0 µM): 96% | residual activity (EPHB4 (human); compound 10.0 µM): 87% | residual activity (MKNK2 (human); compound 1.0 µM): 62% | residual activity (MKNK2 (human); compound 10.0 µM): 23% | residual activity (PIM3 (human); compound 1.0 µM): 105% | residual activity (PIM3 (human); compound 10.0 µM): 76% | residual activity (MAPK9 (human); compound 1.0 µM): 104% | residual activity (MAPK9 (human); compound 10.0 µM): 89% | residual activity (MAPKAPK2 (human); compound 1.0 µM): 107% | residual activity (MAPKAPK2 (human); compound 10.0 µM): 85% | residual activity (TTK (human); compound 1.0 µM): 52% | residual activity (TTK (human); compound 10.0 µM): 32% | residual activity (DAPK1 (human); compound 1.0 µM): 43% | residual activity (DAPK1 (human); compound 10.0 µM): 9% | residual activity (BTK (human); compound 1.0 µM): 131% | residual activity (BTK (human); compound 10.0 µM): 90% | residual activity (EEF2K (human); compound 1.0 µM): 116% | residual activity (EEF2K (human); compound 10.0 µM): 107% | residual activity (MAP3K5 (human); compound 1.0 µM): 44% | residual activity (MAP3K5 (human); compound 10.0 µM): 10% | residual activity (MAP3K9 (human); compound 1.0 µM): 25% | residual activity (MAP3K9 (human); compound 10.0 µM): 3% | residual activity (IKBKB (human); compound 1.0 µM): 91% | residual activity (IKBKB (human); compound 10.0 µM): 93% | residual activity (MARK3 (human); compound 1.0 µM): 80% | residual activity (MARK3 (human); compound 10.0 µM): 41% | residual activity (PKN2 (human); compound 1.0 µM): 73% | residual activity (PKN2 (human); compound 10.0 µM): 65% | residual activity (PAK6 (human); compound 1.0 µM): 107% | residual activity (PAK6 (human); compound 10.0 µM): 93% | residual activity (EPHA4 (human); compound 1.0 µM): 97% | residual activity (EPHA4 (human); compound 10.0 µM): 76% | residual activity (CSNK2A1 (human); compound 1.0 µM): 95% | residual activity (CSNK2A1 (human); compound 10.0 µM): 82%
